Experimental data: US20220267313A1, “DIHYDROPYRIMIDINE DERIVATIVES AND USES THEREOF IN THE TREATMENT OF HBV INFECTION OR OF HBV-INDUCED DISEASES” (Janssen Sciences Ireland Unlimited Company, priority 2019, published 2022)

Columns and labels:
HBV = experiment: Anti-HBV activity: HBV DNA in culture medium by qPCR, HepG2.2.15 cells; assay type: cell-based; conditions: Hepatitis B virus, 144 h, 6 days treatment
Description: (§1) HepG2.2.15 (the HepG2.2.15 cell line can be produced by transfection of the HepG2 cell line as described in Sells, Chen, and Acs 1987 (Proc. Natl. Acad. Sci. USA 84: 1005-1009), and the HepG2 cell line is available from ATCC® under number HB-8065™)
(§2) HepG2.2.15 cells were plated into 96-well plate in 2% FBS culture medium at the density of 40,000 cells/well and 5,000 cells/well for HBV inhibitory activity and cytotoxicity determination, respectively. After incubation at 37° C., 5% CO2 overnight, cells were treated with medium containing compounds for 6 days with medium and compounds refreshed after 3 days of treatment. Each compound was tested in a 1:3 serial dilutions at 8 different concentrations in triplicate. The highest concentration of the compounds was 10 uM or 1 uM for anti-HBV activity assay and 100 uM for cytotoxicity determination.
The change of HBV DNA level induced by the compounds was assessed by quantitative real-time polymerase chain reaction (qPCR). Briefly, the HBV DNA in the culture medium was extracted using QIAamp 96 DNA Blood Kit according to the manual and then quantified by real-time PCR assay using the primers and probe in the table 1 below.
(§3) EC50 and CC50 values are calculated by the GRAPHPAD PRISM software.

[1] = Cytotoxicity determination by CCK-8 assay, HepG2.2.15 cells; assay type: cell-based; conditions: human, 6 days treatment
Description: as §1, §2
Cell viability was determined by CCK-8 assay. After 6 days of compounds treatment, 20 μl CCK-8 reagents were added to each well of cytotoxicity assay plates. Cell plates were incubated at 37° C., 5% CO2 for 2.5 h. The absorbance at 450 nm wavelength and the absorbance at 630 nm wavelength as reference was measured.
as §3

SMILES	EC50 (HBV)	CC50 at 6 days [1]
CCOC(=O)C1=C(C23C4C5C2C2C3C4C52C(=O)O)NC(c2nccn2C)=NC1c1ccc(F)c(F)c1Cl (single isomer, unassigned) [Ia-4, (R*)-4-(6-(2-chloro-3,4-difluorophenyl)-5-(ethoxycarbonyl)-2-(1-methyl-1H-imidazol-2-yl)-3,6-dihydropyrimidin-4-yl)cubane-1-carboxylic Acid]	> 50000 nM	55 nM
CCOC(=O)C1=C(C23C4C5C2C2C3C4C52C(=O)O)NC(c2nccs2)=N[C@@H]1c1ccccc1Cl (stereo in doubt) [Ib-25, (2S,3S,5S,6S,7S,8S)-4-((S*)-6-(2-chlorophenyl)-5-(ethoxycarbonyl)-2-(thiazol-2-yl)-3,6-dihydropyrimidin-4-yl)cubane-1-carboxylic Acid]	> 50000 nM	65 nM
CCOC(=O)C1=C(C23C4C5C2C2C3C4C52C(=O)O)NC(c2ncc(F)cc2F)=NC1c1cccc(F)c1C (single isomer, unassigned) [Ib-18, (S*)-4-(2-(3,5-difluoropyridin-2-yl)-5-(ethoxycarbonyl)-6-(3-fluoro-2-methylphenyl)-3,6-dihydropyrimidin-4-yl)cubane-1-carboxylic Acid]	> 12500 nM	61 nM
CCOC(=O)C1=C(C23C4C5C2C2C3C4C52C(=O)O)NC(c2nccs2)=NC1c1ccc(F)c(F)c1F (single isomer, unassigned) [Ib-20, (S*)-4-(5-(ethoxycarbonyl)-2-(thiazol-2-yl)-6-(2,3,4-trifluorophenyl)-3,6-dihydropyrimidin-4-yl)cubane-1-carboxylic Acid]	46000 nM	28 nM
COC(=O)C1=C(C23C4C5C2C2C3C4C52C(=O)O)NC(c2nccs2)=N[C@@H]1c1ccc(F)c(F)c1Cl (single isomer, unassigned) [Ib-4, (1R,2R,3R,8S)-4-((S*)-6-(2-chloro-3,4-difluorophenyl)-5-(methoxycarbonyl)-2-(thiazol-2-yl)-3,6-dihydropyrimidin-4-yl)cubane-1-carboxylic Acid]	51000 nM	22 nM
COC(=O)C1=C(C23C4C5C2C2C3C4C52C(=O)O)NC(c2ncc(F)cc2F)=NC1c1cccc(F)c1C (single isomer, unassigned) [Ib-26, (S*)-4-(2-(3,5-difluoropyridin-2-yl)-5-(methoxycarbonyl)-6-(3-fluoro-2-methylphenyl)-3,6-dihydropyrimidin-4-yl)cubane-1-carboxylic Acid]	> 12500 nM	160 nM
COC(=O)C1=C(C23C4C5C2C2C3C4C52C(=O)O)NC(c2nccs2)=N[C@@H]1c1ccc(F)cc1Cl (single isomer, unassigned) [Ib-3, (1R,2R,3R,8S)-4-((S*)-6-(2-chloro-4-fluorophenyl)-5-(methoxycarbonyl)-2-(thiazol-2-yl)-3,6-dihydropyrimidin-4-yl)cubane-1-carboxylic Acid]	70000 nM	84 nM
COC(=O)C1=C(C23C4C5C2C2C3C4C52C(=O)O)NC(c2nccn2C)=NC1c1ccc(F)c(F)c1Cl (single isomer, unassigned) [Ia-2, (R*)-4-(6-(2-chloro-3,4-difluorophenyl)-5-(methoxycarbonyl)-2-(1-methyl-1H-imidazol-2-yl)-3,6-dihydropyrimidin-4-yl)cubane-1-carboxylic Acid]	> 100000 nM	295 nM
CCOC(=O)C1=C(C23C4C5C2C2C3C4C52C(=O)O)NC(c2nccs2)=N[C@H]1c1ccc(F)cc1Br (single isomer, unassigned) [Ia-6, (R*)-4-(6-(2-bromo-4-fluorophenyl)-5-(ethoxycarbonyl)-2-(thiazol-2-yl)-3,6-dihydropyrimidin-4-yl)cubane-1-carboxylic Acid]	> 12500 nM	11.5 nM
